{"source": "patent US20250206732A1", "about": "“COMPOUNDS AND METHODS FOR THE TARGETED DEGRADATION OF KRAS” (Arvinas Operations, Inc., priority 2022, published 2025)", "target": "T1, AsPC-1 HiBiT-KRASG12D (Homo sapiens, UniProt P01116, G12D)", "T1 construct": "insert the HiBiT tag onto the N-terminus of one or more of the endogenous KRAS alleles; endogenous in cells; host or cells: AsPC-1 (ATCC CRL-1682), CRISPR-Cas9 knock-in clone, one tagged allele", "T1 sequence (P01116 1-188 isoform P01116-2 G12D)": "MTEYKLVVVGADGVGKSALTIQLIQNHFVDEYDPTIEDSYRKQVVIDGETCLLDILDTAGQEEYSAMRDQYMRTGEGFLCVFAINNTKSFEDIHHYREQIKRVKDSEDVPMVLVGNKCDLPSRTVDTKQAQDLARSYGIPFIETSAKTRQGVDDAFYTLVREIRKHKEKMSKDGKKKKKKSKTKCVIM", "test": "HiBiT degradation assay (G12D), AsPC-1 HiBiT-KRASG12D cells", "assay_type": "cell-based", "conditions": "24 hours treatment; for DC50: AsPC-1 HiBiT-KRASG12D cells, HiBiT luminescence; for Dmax: ASPC1, AsPC-1 HiBiT-KRASG12D cells, maximum degradation observed", "in_short": "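AsPC-1 cells (homozygous G12D) carrying a CRISPR knock-in N-terminal HiBiT tag on endogenous KRAS were treated with compounds for 24 hours at 37° C, 5% CO2, in triplicate. Alamar blue viability was read first, then cells were washed and lysed with Nano-Glo HiBiT reagent for 45 minutes before luminescence reading.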", "data": [{"smiles": "CCc1cccc2cc(O)cc(-c3ncc4c(N5CC6CCC(C5)N6)nc(OC[C@@H]5CC[C@@H](COC(=O)N6CCN(c7cc([C@@H](C(=O)N8C[C@H](O)C[C@H]8C(=O)N[C@@H](C)c8ccc(-c9scnc9C)cc8)C(C)C)on7)[C@H](C)C6)N5C)nc4c3F)c12", "note": "[Compound 298, [(2S,5S)-5-[[4-(3,8-diazabicyclo[3.2.1]octan-3-yl)-7-(8-ethyl-3-hydroxy-1-naphthyl)-8-fluoro-pyrido[4,3-d]pyrimidin-2-yl]oxymethyl]-1-methyl-pyrrolidin-2-yl]methyl (3R)-4-[5-[(1S)-1-[(2S,4R)-4-hydroxy-2-[[(1S)-1-[4-(4-methylthiazol-5-yl)phenyl]ethyl]carbamoyl]pyrrolidine-1-carbonyl]-2-methyl-propyl]isoxazol-3-yl]-3-methyl-piperazine-1-carboxylate]", "values": [{"measurement": "DC50", "result": "> 3", "unit": "µM"}]}, {"smiles": "CCc1cccc2cc(O)cc(-c3ncc4c(N5CC6CCC(C5)N6)nc(OC[C@@H]5CN(CC6CN(c7cc([C@H](C(=O)N8C[C@H](O)C[C@H]8C(=O)N[C@@H](C)c8ccc(-c9scnc9C)cc8)C(C)C)on7)C6)CCN5C)nc4c3F)c12", "note": "[Compound 163, (2S,4R)-1-[(2R)-2-[3-(3-{[(3S)-3-{[(4-{3,8-diazabicyclo[3.2.1]octan-3-yl}-7-(8-ethyl-3-hydroxynaphthalen-1-yl)-8-fluoropyrido[4,3-d]pyrimidin-2-yl)oxy]methyl}-4-methylpiperazin-1-yl]methyl}azetidin-1-yl)-1,2-oxazol-5-yl]-3-methylbutanoyl]-4-hydroxy-N-[(1S)-1-[4-(4-methyl-1,3-thiazol-5-yl)phenyl]ethyl]pyrrolidine-2-carboxamide]", "values": [{"measurement": "Dmax", "result": "60 to 80", "unit": "%"}, {"measurement": "DC50", "result": "< 0.6", "unit": "µM"}]}, {"smiles": "CCc1cccc2cc(O)cc(-c3ncc4c(N5CC6CCC(C5)N6)nc(OC[C@H]5CN(CC6CN(c7cc([C@@H](C(=O)N8C[C@H](O)C[C@H]8C(=O)N[C@@H](C)c8ccc(-c9scnc9C)cc8)C(C)C)on7)C6)CCN5C)nc4c3F)c12", "note": "[Compound 181, (2S,4R)-1-[(2S)-2-[3-(3-{[(3R)-3-{[(4-{3,8-diazabicyclo[3.2.1]octan-3-yl}-7-(8-ethyl-3-hydroxynaphthalen-1-yl)-8-fluoropyrido[4,3-d]pyrimidin-2-yl)oxy]methyl}-4-methylpiperazin-1-yl]methyl}azetidin-1-yl)-1,2-oxazol-5-yl]-3-methylbutanoyl]-4-hydroxy-N-[(1S)-1-[4-(4-methyl-1,3-thiazol-5-yl)phenyl]ethyl]pyrrolidine-2-carboxamide]", "values": [{"measurement": "DC50", "result": "> 3", "unit": "µM"}]}, {"smiles": "CCc1cccc2cc(O)cc(-c3ncc4c(N5CC6CCC(C5)N6)nc(OC[C@]56CCCN5[C@@H](COc5cc([C@H](C(=O)N7C[C@H](O)C[C@H]7C(=O)N[C@@H](C)c7ccc(-c8scnc8C)cc7)C(C)C)on5)CC6)nc4c3F)c12", "note": "[Compound 27, (2S,4R)-1-[(2R)-2-(3-{[(3R,7aR)-7a-{[(4-{3,8-diazabicyclo[3.2.1]octan-3-yl}-7-(8-ethyl-3-hydroxynaphthalen-1-yl)-8-fluoropyrido[4,3-d]pyrimidin-2-yl)oxy]methyl}-hexahydro-1H-pyrrolizin-3-yl]methoxy}-1,2-oxazol-5-yl)-3-methylbutanoyl]-4-hydroxy-N-[(1S)-1-[4-(4-methyl-1,3-thiazol-5-yl)phenyl]ethyl]pyrrolidine-2-carboxamide]", "values": [{"measurement": "DC50", "result": "< 0.6", "unit": "µM"}]}, {"smiles": "CCc1cccc2cc(O)cc(-c3ncc4c(N5CC6CCC(C5)N6)nc(OC[C@@]56CCCN5[C@H](COC(=O)NCc5cc([C@@H](C(=O)N7C[C@H](O)C[C@H]7C(=O)N[C@@H](C)c7ccc(-c8scnc8C)cc7)C(C)C)on5)CC6)nc4c3F)c12", "note": "[Compound 100, [(3S,7aS)-7a-{[(4-{3,8-diazabicyclo[3.2.1]octan-3-yl}-7-(8-ethyl-3-hydroxynaphthalen-1-yl)-8-fluoropyrido[4,3-d]pyrimidin-2-yl)oxy]methyl}-hexahydro-1H-pyrrolizin-3-yl]methyl N-({5-[(2S)-1-[(2S,4R)-4-hydroxy-2-{[(1S)-1-[4-(4-methyl-1,3-thiazol-5-yl)phenyl]ethyl]carbamoyl}pyrrolidin-1-yl]-3-methyl-1-oxobutan-2-yl]-1,2-oxazol-3-yl}methyl) carbamate]", "values": [{"measurement": "Dmax", "result": "20 to 60", "unit": "%"}, {"measurement": "DC50", "result": "1 to 3", "unit": "µM"}]}, {"smiles": "CCc1cccc2cc(O)cc(-c3ncc4c(N5CC6CCC(C5)N6)nc(OC[C@]56CCCN5[C@H](COC(=O)N5CCC(Oc7cc([C@@H](C(=O)N8C[C@H](O)C[C@H]8C(=O)N[C@@H](C)c8ccc(-c9scnc9C)cc8)C(C)C)on7)CC5)CC6)nc4c3F)c12", "note": "[Compound 119, [(3S,7aR)-7a-{[(4-{3,8-diazabicyclo[3.2.1]octan-3-yl}-7-(8-ethyl-3-hydroxynaphthalen-1-yl)-8-fluoropyrido[4,3-d]pyrimidin-2-yl)oxy]methyl}-hexahydro-1H-pyrrolizin-3-yl]methyl 4-({5-[(2S)-1-[(2S,4R)-4-hydroxy-2-{[(1S)-1-[4-(4-methyl-1,3-thiazol-5-yl)phenyl]ethyl]carbamoyl}pyrrolidin-1-yl]-3-methyl-1-oxobutan-2-yl]-1,2-oxazol-3-yl}oxy)piperidine-1-carboxylate]", "values": [{"measurement": "Dmax", "result": "20 to 60", "unit": "%"}, {"measurement": "DC50", "result": "< 0.6", "unit": "µM"}]}, {"smiles": "CCc1cccc2cc(O)cc(-c3ncc4c(N5CC6CCC(C5)N6)nc(OCCN5CCC(C)(COc6cc([C@@H](C(=O)N7C[C@H](O)C[C@H]7C(=O)N[C@@H](C)c7ccc(-c8scnc8C)cc7)C(C)C)on6)CC5)nc4c3F)c12", "note": "[Compound 31, (2S,4R)-1-[(2S)-2-{3-[(1-{2-[(4-{3,8-diazabicyclo[3.2.1]octan-3-yl}-7-(8-ethyl-3-hydroxynaphthalen-1-yl)-8-fluoropyrido[4,3-d]pyrimidin-2-yl)oxy]ethyl}-4-methylpiperidin-4-yl)methoxy]-1,2-oxazol-5-yl}-3-methylbutanoyl]-4-hydroxy-N-[(1S)-1-[4-(4-methyl-1,3-thiazol-5-yl)phenyl]ethyl]pyrrolidine-2-carboxamide]", "values": [{"measurement": "DC50", "result": "> 3", "unit": "µM"}]}, {"smiles": "CCc1cccc2cc(O)cc(-c3ncc4c(N5CC6CCC(C5)N6)nc(OC[C@]56CCCN5[C@@H](COC(=O)N(C)Cc5cc([C@@H](C(=O)N7C[C@H](O)C[C@H]7C(=O)N[C@@H](C)c7ccc(-c8scnc8C)cc7)C(C)C)on5)CC6)nc4c3F)c12", "note": "[Compound 93, [(3R,7aR)-7a-{[(4-{3,8-diazabicyclo[3.2.1]octan-3-yl}-7-(8-ethyl-3-hydroxynaphthalen-1-yl)-8-fluoropyrido[4,3-d]pyrimidin-2-yl)oxy]methyl}-hexahydro-1H-pyrrolizin-3-yl]methyl N-({5-[(2S)-1-[(2S,4R)-4-hydroxy-2-{[(1S)-1-[4-(4-methyl-1,3-thiazol-5-yl)phenyl]ethyl]carbamoyl}pyrrolidin-1-yl]-3-methyl-1-oxobutan-2-yl]-1,2-oxazol-3-yl}methyl)-N-methylcarbamate]", "values": [{"measurement": "Dmax", "result": "20 to 60", "unit": "%"}, {"measurement": "DC50", "result": "1 to 3", "unit": "µM"}]}, {"smiles": "C#Cc1c(F)ccc2cc(O)cc(-c3ncc4c(N5CC6CCC(C5)N6)nc(OC[C@@]56CCCN5[C@H](COc5cc([C@H](C(=O)N7C[C@H](O)C[C@H]7C(=O)N[C@@H](C)c7ccc(-c8scnc8C)cc7)C(C)C)on5)CC6)nc4c3F)c12", "note": "[Compound 314, (2S,4R)-1-[(2R)-2-[3-[[(3S,8S)-8-[[4-(3,8-diazabicyclo[3.2.1]octan-3-yl)-7-(8-ethynyl-7-fluoro-3-hydroxy-1-naphthyl)-8-fluoro-pyrido[4,3-d]pyrimidin-2-yl]oxymethyl]-1,2,3,5,6,7-hexahydropyrrolizin-3-yl]methoxy]isoxazol-5-yl]-3-methyl-butanoyl]-4-hydroxy-N-[(1S)-1-[4-(4-methylthiazol-5-yl)phenyl]ethyl]pyrrolidine-2-carboxamide]", "values": [{"measurement": "Dmax", "result": "80 to 100", "unit": "%"}, {"measurement": "DC50", "result": "< 0.6", "unit": "µM"}]}, {"smiles": "C#Cc1c(F)ccc2cc(O)cc(-c3ncc4c(N5CC6CCC(C5)N6)nc(OCCN5CCC(C6CCN(c7cc([C@H](C(=O)N8C[C@H](O)C[C@H]8C(=O)N[C@@H](C)c8ccc(-c9scnc9C)cc8)C(C)C)on7)CC6)CC5)nc4c3F)c12", "note": "[Compound 176, (2S,4R)-1-[(2R)-2-[3-(1′-{2-[(4-{3,8-diazabicyclo[3.2.1]octan-3-yl}-7-(8-ethynyl-7-fluoro-3-hydroxynaphthalen-1-yl)-8-fluoropyrido[4,3-d]pyrimidin-2-yl)oxy]ethyl}-[4,4′-bipiperidin]-1-yl)-1,2-oxazol-5-yl]-3-methylbutanoyl]-4-hydroxy-N-]", "values": [{"measurement": "Dmax", "result": "80 to 100", "unit": "%"}, {"measurement": "DC50", "result": "< 0.6", "unit": "µM"}]}, {"smiles": "CCc1cccc2cc(O)cc(-c3ncc4c(N5CC6CCC(C5)N6)nc(O[C@H](C)CN5CCC(COc6cc([C@H](C(=O)N7C[C@H](O)C[C@H]7C(=O)N[C@@H](C)c7ccc(-c8scnc8C)cc7)C(C)C)on6)CC5)nc4c3F)c12", "note": "[Compound 101, (2S,4R)-1-[(2R)-2-[3-({1-[(2R)-2-[(4-{3,8-diazabicyclo[3.2.1]octan-3-yl}-7-(8-ethyl-3-hydroxynaphthalen-1-yl)-8-fluoropyrido[4,3-d]pyrimidin-2-yl)oxy]propyl]piperidin-4-yl}methoxy)-1,2-oxazol-5-yl]-3-methylbutanoyl]-4-hydroxy-N-[(1S)-1-[4-(4-methyl-1,3-thiazol-5-yl)phenyl]ethyl]pyrrolidine-2-carboxamide]", "values": [{"measurement": "Dmax", "result": "60 to 80", "unit": "%"}, {"measurement": "DC50", "result": "< 0.6", "unit": "µM"}]}, {"smiles": "CCc1cccc2cc(O)cc(-c3ncc4c(N5CC6CCC(C5)N6)nc(OCCN5CCC(F)(CN6CCN(c7cc([C@@H](C(=O)N8C[C@H](O)C[C@H]8C(=O)N[C@@H](C)c8ccc(-c9scnc9C)cc8)C(C)C)on7)C[C@H]6C)CC5)nc4c3F)c12", "note": "[Compound 195, (2S,4R)-1-[(2S)-2-{3-[(3R)-4-[(1-{2-[(4-{3,8-diazabicyclo[3.2.1]octan-3-yl}-7-(8-ethyl-3-hydroxynaphthalen-1-yl)-8-fluoropyrido[4,3-d]pyrimidin-2-yl)oxy]ethyl}-4-fluoropiperidin-4-yl)methyl]-3-methylpiperazin-1-yl]-1,2-oxazol-5-yl}-3-methylbutanoyl]-4-hydroxy-N-[(1S)-1-[4-(4-methyl-1,3-thiazol-5-yl)phenyl]ethyl]pyrrolidine-2-carboxamide]", "values": [{"measurement": "Dmax", "result": "< 20", "unit": "%"}, {"measurement": "DC50", "result": "1 to 3", "unit": "µM"}]}]}
